Eight compounds from ChEMBL document CHEMBL1156903, “Synthesis of bisboron compounds and their strong inhibitory activity on store-operated calcium entry” (Bioorg Med Chem Lett, 2010) can be followed below.

As a reminder, the IC50 is the point on the concentration scale where inhibition reaches its midpoint.

The assay is described as follows: Inhibition of thapsigargin-induced SOCE channel in fura-2 loaded human Jarkart T cells in presence of 2 mM calcium. The following applies: Jurkat.
Take `NCCOB(c1ccccc1)c1ccc(COCc2ccc(B(OCCN)c3ccccc3)cc2)cc1`: the half-maximal inhibitory concentration (IC50) was determined as 430 nM.
The figure for `NCCOB(c1ccccc1)c1cccc(COCc2cccc(B(OCCN)c3ccccc3)c2)c1` is 320 nM.
To `NCCOB(c1ccccc1)c1ccccc1` belongs 15000 nM.
Regarding `NCCOB(c1ccccc1)c1ccc(CCOCc2ccc(B(OCCN)c3ccccc3)cc2)cc1`, the IC50 turned out to be 310 nM.
As for `NCCOB(c1ccccc1)c1ccc(-c2ccc(B(OCCN)c3ccccc3)cc2)cc1`, the IC50 was 450 nM.
With `Cc1ccc(B(OCCN)c2ccc(Oc3ccc(B(OCCN)c4ccc(C)c(Cl)c4)cc3)cc2)cc1Cl`, the IC50 amounted to 640 nM.
With `NCCOB(c1ccccc1)c1ccc(Oc2ccc(B(OCCN)c3ccccc3)cc2)cc1`, the IC50 came to 410 nM.
In the case of `NCCOB(c1ccccc1)c1cccc(COCc2cccc(Oc3ccccc3)c2)c1`, the IC50 is 1900 nM.
